Reference: patent US20260183396A1, “CXCR3 OVEREXPRESSION IN CAR-NK CELLS PRIMES MIGRATION/HOMING INTO THE TUMOR MICROENVIRONMENT” (DANA-FARBER CANCER INSTITUTE, INC., priority 2022, published 2026)

Columns and labels:
STING [1] = experiment: STING pathway activation / CXCL10 ELISA in MPM cell lines; type: cell-based, human; conditions: multiple MPM cell lines treated in vitro
Description: Cytokine analysis. CXCL10 ELISA (R&D Systems DIP100) and granzyme B ELISA (R&D systems DY008) were performed according to manufacturer's instructions on conditioned media collected from cell culture. Cytokine analysis of conditioned media after 3 days of explant (S1) culture (FIG. 9B) utilized the MSD U-PLEX Viral Combo 1 assay (Hu: K15343K-2), which was performed according to manufacturer's instructions.
Cell culture. MPM cell lines were cultured in RPMI-1640 (Thermo Fisher Scientific) supplemented with 10% FBS (Gemini Bio-products). H226, H28, MSTO-211H, H2452 and H2052 were purchased from ATCC. MS428 was provided by the Richards Lab. H2461 and H2591 were provided to Dr. Janne by the NIH (Pass et al., Ann. Thorac. Surg. 59:835-44 (1995)). JMN1B (Demetri et al., Blood 74:940-6 (1989)) and MS589 (Gordon et al., Am. J. Pathol. 166:1827-40 (2005)) were derived at BWH/DFCI and shared internally with permission. All experiments were performed before reaching 10 passages. Mycoplasma infection was regularly checked by PCR using the conditioned media derived from each cell line with primers as previously described (Kitajima et al., Cancer Discov. 9:34-45 (2019)).
Immunoblotting. Cells were lysed in RIPA buffer containing 1× protease inhibitors (Roche 11-836-145-001) and phosphatase inhibitors (50 mmol/L NaF and 100 mmol/L Na3VO4). […]

CXCL10 = CXCL10 release from MPM PDOTS/explants; type: cell-based, human; conditions: MPM PDOTS, specific samples
Description: Patient-derived organotypic tumor spheroids (PDOTS). PDOTS were generated as previously described (Jenkins et al., Cancer Discov. 8:196-215 (2018); Aref et al., Lab Chip 18:3129-3143 (2018)). Briefly, fresh tumor specimens were minced in a 15 mL falcon tube in prewarmed to 37° C. full media (DMEM from Thermo Fisher Scientific+10% FBS)+100 U/mL collagenase type IV (Life Technologies) and 50 μg/mL dNase I (Roche) for approximately 20 minutes using sterile scissors and pipetting. Dissociated material was strained over 100-μm filter and 40-μm filters to generate S1 (>100 μm), S2 (40-100 μm), and S3 (<40 μm) spheroid fractions, which were subsequently maintained in ultralow-attachment (ULA) tissue culture plates (Corning). […] S2 fractions were used for ex vivo culture by resuspending them in type I rat tail collagen (Corning) at a concentration of 2.8 mg/mL prior to loading into the center gel region of the 3-D microfluidic culture device (AIM Biotech) and incubation for 40 minutes at 37° C. in humidity chambers to allow for polymerization. Collagen hydrogels containing PDOTS were hydrated with media with or without indicated treatments. TAK-676 was provided by Takeda and diluted in dH20. Recombinant human interferon beta (100 ng/ml; R&D Systems) was used as a positive control downstream of STING for STAT1 pathway activation. […]

IRF3 = IRF3 immunofluorescence in PDOTS; type: cell-based, human; conditions: PDOTS following treatment
Description: PDOTS immunofluorescence and live/dead quantification. Dual labeling was performed by loading microfluidic devices with Nexcelom ViaStain acridine orange/propidium iodide (AO/PI) Staining Solution (Nexcelom, CS2-0106) or 10 μg/mL solution of Hoechst 33342 (Thermo Fisher Scientific) and 1 μg/mL solution of PI (Thermo Fisher Scientific). Following incubation with the dyes (20 minutes at room temperature in the dark for AO/PI or 45 minutes for Hoechst 33342/PI), images were captured using 4× objective of a Nikon Eclipse 80i fluorescence microscope equipped with automated motorized stage (Proscan), Z-stack (Prior), and Zyla 5.5 sCMOS camera (Andor). Image capture and analysis were performed using NIS-Elements AR software package. Live and dead cell quantitation was performed by measuring total cell area of each dye. For additional immunofluorescence studies, PDOTS were washed with PBS and blocked with FcR blocking reagent (Miltenyi) for 30 minutes at room temperature. Directly conjugated antibodies CD326 EpCAM-AlexaFluor647 (clone 9C4), CD45-AlexaFluor647 (HI30) (BioLegend), and mesothelin-PE (clone REA1057, Miltenyi) were diluted 1:50 in 10 μg/mL solution of Hoechst 33342 (Thermo Fisher Scientific) in PBS and loaded into microfluidic devices for 1-hour incubation at room temperature in the dark. Spheroids were washed twice with PBS with 0.1% Tween20 followed by PBS. […]

NK cells = experiment: Immune cell toxicity assays, NK cells; type: cell-based; conditions: 72 hours of high dose exposure; regardless of IL-2 or co-culture with TILs
Description: Immune Cell Toxicity Assays. […] Following treatment, samples were stained with anti-CD45, anti-CD3, anti-CD4, anti-CD8, and anti-CD56 antibodies (Table 1), as well as Zombie Green live/dead (Biolegend 423111) and analyzed by flow cytometry as described above. Data were analyzed using FlowJo software version 10.5.3. As an orthogonal measure of viability, CellTiter-Glo was performed on primary T-cells and NK cells.
CellTiter-Glo luminescent cell viability assay. Cell viability was assessed using the CellTiter-Glo Luminescent Cell Viability assay (Promega, G7571) according to manufacturer's instructions. […] All conditions were tested in triplicate and plates were read on a Tecan Infinite Mplex Microplate Reader.

STING [2] = experiment: STING immunoblotting in NK cells and TILs; type: cell-based, human
Description: Immunoblotting. […] Imaging of blots and was performed using the LI-COR Odyssey system.

Nc1ncnc2c1ncn2[C@@H]1O[C@@H]2COP(=O)([S-])O[C@@H]3[C@H](O)[C@@H](COP([O-])(=S)O[C@H]2[C@H]1O)O[C@H]3n1cnc2c(N)ncnc21.[Na+].[Na+] (stereo partly drawn) [ADU-S100]
STING pathway activation, CXCL10 secretion (STING [1]): potent pathway activation | CXCL10 release (CXCL10): induced CXCL10 release | IRF3 localisation (IRF3): nuclear translocation | cytotoxicity in human NK cells (NK cells): no significant cytotoxicity | time within which STING was degraded (STING [2]; NK cells): 3 to 6 h | T-cell STING degradation (STING [2]; T-cells, STING phosphorylated and activated): minimally degraded
